The values below are quoted from earlier work in patent publication US20100260755A1, “IBUDILAST AND IMMUNOMODULATORS COMBINATION” (MediciNova, Inc., priority 2009, published 2010).

Series [1] deals with experimental autoimmune encephalomyelitis. The note with it: in vivo.
Series [2] deals with glial cells.
Series [3] deals with multiple sclerosis patients. The note with it: daily injections, exacerbating-remitting MS.
Series [4] has as its system T-cells isolated from peripheral blood of MS patients. The note with it: in vitro.

In the case of Glatiramer acetate, the “effect on experimental autoimmune encephalomyelitis (EAE)” value in series [1] is “suppress”. Moreover, the “production of inflammatory mediators TNF-α, nitric oxide, superoxide by glial cells” value in series [2] is recorded as “effectively suppress”. Besides, in series [3], the “exacerbations versus control patients” value is reported as “fewer exacerbations” and the “increases in disability status versus control patients” value was “smaller increases”. Further, the “IL-5 and IL-13 cytokine secretion” value in series [4] is given as “induces”.
